From patent US20230020469A1, “USE OF CO-CRYSTALS OF TRAMADOL AND CELECOXIB FOR TREATING PAIN WHILE REDUCING THE ABUSE LIABILITY OF TRAMADOL” (ESTEVE PHARMACEUTICALS, S.A., priority 2019, published 2023)

Assay: Single dose, open-label, 4-period crossover pharmacokinetic study; plasma tramadol and O-desmethyltramadol (M1) by HPLC-MS/MS; AQ=Cmax/Tmax
Settings: for AQ for tramadol, comparison between treatments (in words): 4-way cross-over study, co-crystal vs Ultram® and vs Ultram® and Celebrex® taken concomitantly, Ultram® alone vs in combination; for O-desmethyltramadol AQ / Tramadol AQ: n 33, 2 × 100 mg co-crystal E-58425 tablets oral (Treatment 1), healthy subjects
Procedure: The study was a single center, randomized, single dose, open-label, 4-period, 4-sequence, crossover design in healthy male and female subjects.
The products were administered to 36 subjects. The wash-out between the periods for each subject was of 7 calendar days.
Separate blood samples were obtained for analysis of tramadol/M1 metabolite and for analysis of celecoxib (data not shown).
As soon as possible following blood collection, samples were centrifuged at a temperature of 4° C. nominal and at approximately 1500 g for 10 minutes. The plasma obtained was separated into duplicate polypropylene culture tubes. […] The samples were frozen in an upright position and retained in the clinic's freezers at a temperature of −20° C. nominal until sent on dry ice to the bioanalytical facility for assay.
The experimental human plasma samples were assayed for tramadol and M1 metabolite (0-desmethyltramadol) and also for celecoxib (data not shown) using two different validated bioanalytical methods by HPLC with MS/MS detection.
Sample pre-treatment involved the liquid-liquid extraction of tramadol and O-desmethyltramadol from 0.100 mL of human plasma; tramadol-D6 and O-desmethyltramadol-D6 were used as the internal standards (IS1 and IS2 respectively). The compounds were identified and quantified using Hilic HPLC with MS/MS detection over a theoretical concentration range of 2.00 ng/mL to 800.00 ng/mL for tramadol and 0.500 ng/mL to 200.00 ng/mL for O-desmethyltramadol. The concentrations were calculated using peak area ratios and the linearity of the calibration curve was determined using a weighted (1/x^2) linear (y=mx+b) least squares regression analysis for tramadol and for O-desmethyltramadol.
Pharmacokinetic parameters were estimated from the individual plasma concentration—time profile for each subject. The main absorption and disposition parameters were obtained using a non-compartmental approach with a log-linear terminal phase assumption. Maximum observed plasma concentration (Cmax) and the time of maximum observed plasma concentration (Tmax) were obtained directly from the experimental data. The trapezoidal rule was used to estimate the area under the curve (AUC; data not shown) and the terminal phase was estimated by maximizing the coefficient of determination estimated from the log-linear regression model (T1/2; data not shown). The abuse quotient was obtained using the following expression AQ=Cmax/Tmax.

COc1cccc(C2(O)CCCCC2CN(C)C)c1.Cc1ccc(-c2cc(C(F)(F)F)nn2-c2ccc(S(N)(=O)=O)cc2)cc1.Cl (racemic) [Co-crystal E-58425, co-crystal of (rac)-tramadol.HCl and celecoxib]
AQ for tramadol, comparison between treatments (in words): lower
AQ for tramadol, comparison between treatments (in words) (listed as co-crystal E-58425): better (lower)
O-desmethyltramadol AQ (Mean): 13.5 ng/(mL · h)
Tramadol AQ (Mean): 70.5 ng/(mL · h)
O-desmethyltramadol AQ (Median): 13.3 ng/(mL · h)
Tramadol AQ (Median): 70.7 ng/(mL · h)
